Results reported in patent US11332485B2, “Penicillin-binding protein inhibitors” (priority 2017, dated 2022).
Where two headings read alike, the source gives them in different places.

What was measured:
S. aureus ATCC 29213 = experiment: Broth microdilution MIC assay; format: cell-based; settings: Staphylococcus aureus
Experimental: (§1) To determine the ability of test compounds to potentiate the inhibition of the growth of bacterial strains, classic cell based broth microdilution MIC assays were employed. MIC assays are performed according to CLSI methods except where otherwise noted (CLSI, 2011 and CLSI, 2009). The reference strain S. aureus ATCC 29213 and the hyper-permeable E. coli 901C were used to determine the ability of the PBP compounds to inhibit bacterial growth. Briefly, cryo-preserved bacterial cultures of clinical strains are streaked for isolation on appropriate agar medium, in this case Mueller Hinton II agar. Following incubation to allow formation of colonies these plates are sealed with parafilm and stored refrigerated for up to two weeks. For preparation of assay inocula and to ensure low variability, at least 5 colonies are picked from the agar plates with an inoculating loop and aseptically transferred to a culture tube containing 3 mL of Mueller-Hinton Broth (supplemented with divalent cations to required levels based on Manufacturers' certification). The broth culture is grown for 3-5 hours at 37° C. with shaking at 200 rpm. Meanwhile, 2-fold serial dilutions of test compounds are conducted in a 96 well plate with a final volume of 75 μL per well at 2-fold the final desired concentration. After the dilution plates are set up the growing cultures are then diluted in a cuvette containing MH II broth and the optical density is measured at 600 nm. Inocula are diluted such that 75 μL of this culture in Mueller-Hinton Broth results in a starting bacterial concentration of 5×10^5 CFU/mL when added to the dilution plates. The plates are incubated 16-20 hours at 37° C. The MIC is read visually as the lowest concentration well with no bacterial growth.

[1] = system: hyper-permeable E. coli 901C; experiment: Broth microdilution MIC assay; format: cell-based; settings: Escherichia coli, read-out: E. coli 901C MIC
Experimental: as §1

E. coli DH5α/pLBII = experiment: Broth microdilution MIC assay, empty vector control strain; format: cell-based; settings: Escherichia coli, read-out: E. coli DH5α/pLBII Microbiological Activity (MIC)
Experimental: as §1
(§2) To determine if test compounds were affected by CTX-M15, the most abundant extended spectrum β-lactamase in clinical settings worldwide, the inhibition of the growth of an engineered strain of Escherichia coli harboring CTX-M15 was tested. This strain was constructed by cloning the gene encoding CTX-M15 into the NdeI and BamHI restriction endonuclease sites of plasmid pLBII, placing the gene(s) under the control of the Lac promoter. The constructed expression plasmid for CTX-M15 was used to transform competent E. coli DH5a cells to make the engineered strain, including an empty pLBII vector control strain. The classic cell based broth microdilution MIC assay was employed as described above with the addition of control antibiotics, known to be degraded by β-lactamases (Ceftazidime, piperacillin and piperacillin+tazobactam).

[2] = system: E. coli DH5α/pLBII-CTX-M15; experiment: Broth microdilution MIC assay, engineered strain producing CTX-M15; format: cell-based, Escherichia coli; settings: Escherichia coli, read-out: E. coli DH5α/pLBII-CTX-M15 Microbiological Activity (MIC)
Experimental: as §1, §2

[3] = ATCC29213, broth microdilution, 16-20 hours at 37° C., read-out: S. aureus 29213 MIC

Structure (SMILES): COc1cc(C(=O)NC(C(=O)N[C@H]2Cc3cccc(C(=O)O)c3OB2O)c2csc(N)n2)ccn1 (stereo partly drawn) [Example 41, (3R)-3-(2-(2-aminothiazol-4-yl)-2-(2-methoxyisonicotinamido)acetamido)-2-hydroxy-3,4-dihydro-2H-benzo[e][1,2]oxaborinine-8-carboxylic acid]
- MIC (S. aureus ATCC 29213; [3]): 64 to 128 µg/mL
- MIC [1]: < 64 µg/mL
- MIC (E. coli DH5α/pLBII): > 512 µg/mL
- MIC [2]: > 512 µg/mL

Structure (SMILES): Nc1nc([C@@H](N)C(=O)N[C@H]2Cc3cccc(C(=O)O)c3OB2O)cs1 [Example 8, (R)-3-((R)-2-amino-2-(2-aminothiazol-4-yl)acetamido)-2-hydroxy-3,4-dihydro-2H-benzo[e][1,2]oxaborinine-8-carboxylic acid]
- MIC (S. aureus ATCC 29213; [3]): > 128 µg/mL
- MIC [1]: > 128 µg/mL
- MIC (E. coli DH5α/pLBII): > 512 µg/mL
- MIC [2]: > 512 µg/mL

Structure (SMILES): N[C@@H](C(=O)N[C@H]1Cc2cccc(C(=O)O)c2OB1O)c1ccccc1 [Example 2, (R)-3-((R)-2-amino-2-phenylacetamido)-2-hydroxy-3,4-dihydro-2H-benzo[e][1,2]oxaborinine-8-carboxylic acid]
- MIC (S. aureus ATCC 29213; [3]): > 128 µg/mL
- MIC [1]: > 128 µg/mL
- MIC (E. coli DH5α/pLBII): > 512 µg/mL
- MIC [2]: > 512 µg/mL

Structure (SMILES): CCN1CCN(C(=O)N[C@@H](C(=O)N[C@H]2Cc3cccc(C(=O)O)c3OB2O)[C@H](O)CO)C(=O)C1=O [Example 74, (R)-3-((2R,3S)-2-(4-ethyl-2,3-dioxopiperazine-1-carboxamido)-3,4-dihydroxybutanamido)-2-hydroxy-3,4-dihydro-2H-benzo[e][1,2]oxaborinine-8-carboxylic acid]
- MIC (S. aureus ATCC 29213; [3]): > 128 µg/mL
- MIC [1]: < 64 µg/mL
- MIC (E. coli DH5α/pLBII): 32 to 64 µg/mL
- MIC [2]: 32 to 64 µg/mL

Structure (SMILES): CCN1C(=O)CN(C(=O)NC(C(=O)N[C@H]2Cc3cccc(C(=O)O)c3OB2O)c2csc(N)n2)CC1=O (stereo partly drawn) [Example 64, (3R)-3-(2-(2-aminothiazol-4-yl)-2-(4-ethyl-3,5-dioxopiperazine-1-carboxamido)acetamido)-2-hydroxy-3,4-dihydro-2H-benzo[e][1,2]oxaborinine-8-carboxylic acid]
- MIC (S. aureus ATCC 29213; [3]): > 128 µg/mL
- MIC [1]: < 64 µg/mL
- MIC (E. coli DH5α/pLBII): 128 to 256 µg/mL
- MIC [2]: 128 to 256 µg/mL

Structure (SMILES): Cn1ccc(C(=O)NC(C(=O)N[C@H]2Cc3cccc(C(=O)O)c3OB2O)c2csc(N)n2)cc1=O (stereo partly drawn) [Example 42, (3R)-3-(2-(2-aminothiazol-4-yl)-2-(1-methyl-2-oxo-1,2-dihydropyridine-4-carboxamido)acetamido)-2-hydroxy-3,4-dihydro-2H-benzo[e][1,2]oxaborinine-8-carboxylic acid]
- MIC (S. aureus ATCC 29213; [3]): 64 to 128 µg/mL
- MIC [1]: < 64 µg/mL
- MIC (E. coli DH5α/pLBII): 32 to 64 µg/mL
- MIC [2]: 32 to 64 µg/mL

Structure (SMILES): CN(C)S(=O)(=O)NC(C(=O)N[C@H]1Cc2cccc(C(=O)O)c2OB1O)c1csc(N)n1 (stereo partly drawn) [Example 23, (3R)-3-(2-(2-aminothiazol-4-yl)-2-((N,N-dimethylsulfamoyl)amino)acetamido)-2-hydroxy-3,4-dihydro-2H-benzo[e][1,2]oxaborinine-8-carboxylic acid]
- MIC (S. aureus ATCC 29213; [3]): > 128 µg/mL
- MIC [1]: < 64 µg/mL
- MIC (E. coli DH5α/pLBII): 128 to 256 µg/mL
- MIC [2]: 128 to 256 µg/mL

Structure (SMILES): CCN1CCN(C(=O)N[C@@H](C)C(=O)N[C@H]2Cc3cccc(C(=O)O)c3OB2O)C(=O)C1=O [Example 31, (R)-3-((S)-2-(4-Ethyl-2,3-dioxopiperazine-1-carboxamido)propanamido)-2-hydroxy-3,4-dihydro-2H-benzo[e][1,2]oxaborinine-8-carboxylic acid]
- MIC (S. aureus ATCC 29213; [3]): > 128 µg/mL
- MIC [1]: > 128 µg/mL
- MIC (E. coli DH5α/pLBII): > 512 µg/mL
- MIC [2]: > 512 µg/mL

Structure (SMILES): N[C@@H](C(=O)N[C@H]1Cc2cccc(C(=O)O)c2OB1O)c1ccc(O)cc1 [Example 6, (R)-3-((R)-2-amino-2-(4-hydroxyphenyl)acetamido)-2-hydroxy-3,4-dihydro-2H-benzo[e][1,2]oxaborinine-8-carboxylic acid]
- MIC (S. aureus ATCC 29213; [3]): > 128 µg/mL
- MIC [1]: > 128 µg/mL
- MIC (E. coli DH5α/pLBII): > 512 µg/mL
- MIC [2]: > 512 µg/mL

Structure (SMILES): Cc1cc(C)n2c1C=C1C=CC(CCC(=O)NCCON=C(C(=O)N[C@H]3Cc4cccc(C(=O)O)c4OB3O)c3csc(N)n3)=[N+]1[B-]2(F)F [Example 13, (R)-3-(2-(2-aminothiazol-4-yl)-2-((2-(3-(5,5-difluoro-7,9-dimethyl-5H-4λ^4,5λ^4-dipyrrolo[1,2-c:2′,1′-f][1,3,2]diazaborinin-3-yl)propanamido)ethoxy)imino)acetamido)-2-hydroxy-3,4-dihydro-2H-benzo[e][1,2]oxaborinine-8-carboxylic acid]
- MIC (S. aureus ATCC 29213; ATCC29213, read-out: S. aureus 29213 MIC): > 128 µg/mL
- MIC [1]: > 128 µg/mL
- MIC (E. coli DH5α/pLBII): > 512 µg/mL
- MIC [2]: > 512 µg/mL

Structure (SMILES): Nc1nc(C(NC(=O)c2cscn2)C(=O)N[C@H]2Cc3cccc(C(=O)O)c3OB2O)cs1 (stereo partly drawn) [Example 16, (3R)-3-(2-(2-aminothiazol-4-yl)-2-(thiazole-4-carboxamido)acetamido)-2-hydroxy-3,4-dihydro-2H-benzo[e][1,2]oxaborinine-8-carboxylic acid]
- MIC (S. aureus ATCC 29213; [3]): 64 to 128 µg/mL
- MIC [1]: < 64 µg/mL
- MIC (E. coli DH5α/pLBII): 128 to 256 µg/mL
- MIC [2]: 128 to 256 µg/mL

Structure (SMILES): CCN1CCN(C(=O)NC(C(=O)N[C@@H]2Cc3cccc(C(=O)O)c3OB2O)c2csc(N)n2)C(=O)C1=O (stereo partly drawn) [Example 33, (3S)-3-(2-(2-aminothiazol-4-yl)-2-(4-ethyl-2,3-dioxopiperazine-1-carboxamido)acetamido)-2-hydroxy-3,4-dihydro-2H-benzo[e][1,2]oxaborinine-8-carboxylic acid]
- MIC (S. aureus ATCC 29213; [3]): > 128 µg/mL
- MIC [1]: < 64 µg/mL
- MIC (E. coli DH5α/pLBII): 128 to 256 µg/mL
- MIC [2]: 128 to 256 µg/mL

Structure (SMILES): Nc1nc(C(NC(=O)Nc2cccnc2)C(=O)N[C@H]2Cc3cccc(C(=O)O)c3OB2O)cs1 (stereo partly drawn) [Example 30, (3R)-3-(2-(2-aminothiazol-4-yl)-2-(3-(pyridin-3-yl)ureido)acetamido)-2-hydroxy-3,4-dihydro-2H-benzo[e][1,2]oxaborinine-8-carboxylic acid]
- MIC (S. aureus ATCC 29213; [3]): 64 to 128 µg/mL
- MIC [1]: 64 to 128 µg/mL
- MIC (E. coli DH5α/pLBII): 128 to 256 µg/mL
- MIC [2]: 128 to 256 µg/mL

Structure (SMILES): Nc1nc(CC(=O)NC(C(=O)N[C@H]2Cc3cccc(C(=O)O)c3OB2O)c2csc(N)n2)cs1 (stereo partly drawn) [Example 22, (3R)-3-(2-(2-aminothiazol-4-yl)-2-(2-(2-aminothiazol-4-yl)acetamido)acetamido)-2-hydroxy-3,4-dihydro-2H-benzo[e][1,2]oxaborinine-8-carboxylic acid]
- MIC (S. aureus ATCC 29213; [3]): 64 to 128 µg/mL
- MIC [1]: < 64 µg/mL
- MIC (E. coli DH5α/pLBII): 128 to 256 µg/mL
- MIC [2]: 128 to 256 µg/mL

Structure (SMILES): CCCN1CCN(C(=O)NC(C(=O)N[C@H]2Cc3cccc(C(=O)O)c3OB2O)c2csc(NC(=O)OCc3ccccc3)n2)C(=O)C1=O (stereo partly drawn) [Example 56, (3R)-3-(2-(2-(((benzyloxy)carbonyl)amino)thiazol-4-yl)-2-(2,3-dioxo-4-propylpiperazine-1-carboxamido)acetamido)-2-hydroxy-3,4-dihydro-2H-benzo[e][1,2]oxaborinine-8-carboxylic acid]
- MIC (S. aureus ATCC 29213; [3]): 64 to 128 µg/mL
- MIC [1]: < 64 µg/mL
- MIC (E. coli DH5α/pLBII): > 512 µg/mL
- MIC [2]: > 512 µg/mL

Structure (SMILES): CCN1CCN(C(=O)N[C@H](CO)C(=O)N[C@H]2Cc3cccc(C(=O)O)c3OB2O)C(=O)C1=O [Example 35, (R)-3-((R)-2-(4-Ethyl-2,3-dioxopiperazine-1-carboxamido)-3-hydroxy-propanamido)-2-hydroxy-3,4-dihydro-2H-benzo[e][1,2]oxaborinine-8-carboxylic acid]
- MIC (S. aureus ATCC 29213; [3]): > 128 µg/mL
- MIC [1]: < 64 µg/mL
- MIC (E. coli DH5α/pLBII): 32 to 64 µg/mL
- MIC [2]: 32 to 64 µg/mL

Structure (SMILES): N[C@H](C(=O)N[C@H]1Cc2cccc(C(=O)O)c2OB1O)c1ccc(O)cc1 [Example 7, (R)-3-((S)-2-amino-2-(4-hydroxyphenyl)acetamido)-2-hydroxy-3,4-dihydro-2H-benzo[e][1,2]oxaborinine-8-carboxylic acid]
- MIC (S. aureus ATCC 29213; [3]): 64 to 128 µg/mL
- MIC [1]: > 128 µg/mL
- MIC (E. coli DH5α/pLBII): 128 to 256 µg/mL
- MIC [2]: 128 to 256 µg/mL

Structure (SMILES): CCC(O)[C@H](NC(=O)N1CCN(CC)C(=O)C1=O)C(=O)N[C@H]1Cc2cccc(C(=O)O)c2OB1O (single isomer, unassigned) [Example 83]
- MIC (S. aureus ATCC 29213; [3]): > 128 µg/mL
- MIC [1]: 64 to 128 µg/mL
- MIC (E. coli DH5α/pLBII): 128 to 256 µg/mL
- MIC [2]: 128 to 256 µg/mL

Structure (SMILES): Nc1nc(C(NC(=O)CO)C(=O)N[C@H]2Cc3cccc(C(=O)O)c3OB2O)cs1 (stereo partly drawn) [Example 29, (3R)-3-(2-(2-aminothiazol-4-yl)-2-(2-hydroxyacetamido)acetamido)-2-hydroxy-3,4-dihydro-2H-benzo[e][1,2]oxaborinine-8-carboxylic acid]
- MIC (S. aureus ATCC 29213; [3]): > 128 µg/mL
- MIC [1]: < 64 µg/mL
- MIC (E. coli DH5α/pLBII): 32 to 64 µg/mL
- MIC [2]: 32 to 64 µg/mL
